The text below walks through data of patent publication US20250222044A1, “LIMOSILACTOBACILLUS REUTERI GOLDGUT-LR99 AND APPLICATION THEREOF” (priority 2024, published 2025).

Where a SMILES comes first, the peptide text is derived from it.

The test system of one test is Limosilactobacillus reuteri GOLDGUT-LR99. The test is described as follows: Carbon source utilization and oxidation experiment (AN Biolog micro-pore plate). In kind it is cell-based. The note with it: substrate utilization by the strain. The protocol:
The AN Biolog micro-pore plate was used for measuring the utilization and oxidation conditions of different carbon sources of Limosilactobacillus reuteri GOLDGUT-LR99, the AN microplate used nutrients and biochemical reagents, and the method included the following steps: 1 mL of Limosilactobacillus reuteri GOLDGUT-LR99 bacterial liquid of the strain to be detected at the end of logarithmic growth was pipetted and centrifuged, then the supernatant was removed, the cells was washed three times with the seed liquid and suspended with 1 mL of the seed liquid, 50 μL of the suspension was taken and diluted in 10 mL of the seed liquid, the diluent was subpacked in a Biolog plate (100 μL/pore) after mixing uniformly, and the Biolog plate with the diluent was placed in 37° C. for anaerobic culture for 24 hours. After the culture was finished, OD590 and OD750 were detected by using microplate reader, the numerical values were recorded, and the utilization conditions of carbohydrate, organic acid and other substances of the Limosilactobacillus reuteri GOLDGUT-LR99 were calculated, wherein the calculation method was as follows: Y=OD590−OD750;
With `CC(O)C(=O)O` (racemic) [D,L-Lactic acid], the “utilization effect (in words)” value is listed as “effectively utilize”.

Consider `O=C(CO)[C@@H](O)[C@H](O)[C@H](O)CO` [D-Fructose], for which the “utilization effect (in words)” value is “better utilization effect”.

On to `CC(C)[C@H](N)C(=O)O` [L-Valine], for which the “utilization effect (in words)” value is listed as “good utilization effect”.

The same test, now with this note: substrate utilization by the strain, 37° C. anaerobic culture for 24 hours.
On to `OC[C@H]1O[C@@H](O[C@H]2[C@H](O)[C@@H](O)[C@@H](O)O[C@@H]2CO)[C@H](O)[C@@H](O)[C@H]1O` [α-D-Lactose], for which the “Utilization (Y=OD590−OD750)” value is “− (when Y < 0.05, it is shown that the strain was not able to utilize this substance, marked as −)”.

In the case of L-Alanyl-L-M-glutamate, the “Utilization (Y=OD590−OD750)” value is recorded as “− (when Y < 0.05, it is shown that the strain was not able to utilize this substance, marked as −)”.

Turning to `C[C@H](O)C(=O)O` [L-Lactic acid], the “Utilization (Y=OD590−OD750)” value is given as “++ (when Y > 0.1, it is shown that the strain was able to effectively utilize this substance, marked as++)”.

In the case of `OC[C@H]1O[C@@](CO)(O[C@H]2O[C@H](CO)[C@@H](O)[C@H](O)[C@H]2O)[C@@H](O)[C@@H]1O` [Sucrose], the “Utilization (Y=OD590−OD750)” value is recorded as “− (when Y < 0.05, it is shown that the strain was not able to utilize this substance, marked as −)”.

Consider `CC(O)CC(=O)O` (stereo not drawn) [β-Hydroxybutyric acid], for which the “Utilization (Y=OD590−OD750)” value is “− (when Y < 0.05, it is shown that the strain was not able to utilize this substance, marked as −)”.

As to Glycine-L-aspartic acid, the “Utilization (Y=OD590−OD750)” value is given as “− (when Y < 0.05, it is shown that the strain was not able to utilize this substance, marked as −)”.

Take `OC[C@@H](O)[C@@H](O)[C@H](O)[C@@H](O)CO` [D-Sorbitol]: the “Utilization (Y=OD590−OD750)” value is given as “++ (when Y > 0.1, it is shown that the strain was able to effectively utilize this substance, marked as++)”.

As to `O=C[C@H](O)[C@@H](O)[C@@H](O)[C@H](O)CO` [D-Galactose], the “Utilization (Y=OD590−OD750)” value is given as “++ (when Y > 0.1, it is shown that the strain was able to effectively utilize this substance, marked as++)”.

Consider `OCc1ccccc1O[C@@H]1O[C@H](CO)[C@@H](O)[C@H](O)[C@H]1O` [Salicin], for which the “Utilization (Y=OD590−OD750)” value was “− (when Y < 0.05, it is shown that the strain was not able to utilize this substance, marked as −)”.

Turning to `O=C[C@H](O)[C@@H](O)[C@H](O)[C@H](O)COP(=O)(O)O` [Glucose-6-phosphate], the “Utilization (Y=OD590−OD750)” value is on record as “++ (when Y > 0.1, it is shown that the strain was able to effectively utilize this substance, marked as++)”.

Regarding `CC(O)C(=O)O` (racemic) [D,L-Lactic acid], the “Utilization (Y=OD590−OD750)” value is “++ (when Y > 0.1, it is shown that the strain was able to effectively utilize this substance, marked as++)”.

For `OC[C@@H](O)[C@@H](O)[C@@H](O)CO` [Ribitol], the “Utilization (Y=OD590−OD750)” value is “− (when Y < 0.05, it is shown that the strain was not able to utilize this substance, marked as −)”.

On to `N[C@@H](Cc1ccccc1)C(=O)O` [L-Phenylalanine], for which the “Utilization (Y=OD590−OD750)” value is reported as “− (when Y < 0.05, it is shown that the strain was not able to utilize this substance, marked as −)”.

Consider `C[C@H](N)C(=O)N[C@@H](Cc1c[nH]cn1)C(=O)O` [L-Alanyl-histidine] (H-Ala-His-OH), for which the “Utilization (Y=OD590−OD750)” value is given as “− (when Y < 0.05, it is shown that the strain was not able to utilize this substance, marked as −)”.

For `O=CO` [Formic acid], the “Utilization (Y=OD590−OD750)” value is on record as “− (when Y < 0.05, it is shown that the strain was not able to utilize this substance, marked as −)”.

For the compound `COC(=O)C(C)O` (centres unmarked) [Methyl lactate], the “Utilization (Y=OD590−OD750)” value was “+ (when 0.1 > Y > 0.05, it is shown that the strain was able to better utilize this substance, marked as +)”.

As for `CO[C@@H]1O[C@H](CO)[C@@H](O)[C@H](O)[C@H]1O` [β-Methyl-D-glucoside], the “Utilization (Y=OD590−OD750)” value was “− (when Y < 0.05, it is shown that the strain was not able to utilize this substance, marked as −)”.

As for `N[C@@H](CCC(=O)O)C(=O)O` [L-Glutamic acid], the “Utilization (Y=OD590−OD750)” value is listed as “− (when Y < 0.05, it is shown that the strain was not able to utilize this substance, marked as −)”.

For the compound `O=C(O)CCC(=O)C(=O)O` [α-Ketoglutaric acid], the “Utilization (Y=OD590−OD750)” value is “− (when Y < 0.05, it is shown that the strain was not able to utilize this substance, marked as −)”.

With `COC1OC(CO)C(O)C(O)C1O` [α-Methyl-D-galactoside], the “Utilization (Y=OD590−OD750)” value is recorded as “− (when Y < 0.05, it is shown that the strain was not able to utilize this substance, marked as −)”.

`O=C(O)C[C@H](O)C(=O)O` [L-Malic acid]: the “Utilization (Y=OD590−OD750)” value is “− (when Y < 0.05, it is shown that the strain was not able to utilize this substance, marked as −)”.

For the compound `O=C(CO)[C@@H](O)[C@H](O)[C@H](O)CO` [D-Fructose], the “Utilization (Y=OD590−OD750)” value is “++ (when Y > 0.1, it is shown that the strain was able to effectively utilize this substance, marked as++)”.

Regarding Dextrin, the “Utilization (Y=OD590−OD750)” value is reported as “− (when Y < 0.05, it is shown that the strain was not able to utilize this substance, marked as −)”.

As for `CC(C)[C@H](N)C(=O)O` [L-Valine], the “Utilization (Y=OD590−OD750)” value was “+ (when 0.1 > Y > 0.05, it is shown that the strain was able to better utilize this substance, marked as +)”.

With `OC[C@H]1O[C@H](O[C@H]2O[C@H](CO)[C@@H](O)[C@H](O)[C@H]2O)[C@H](O)[C@@H](O)[C@@H]1O` [D-Trehalose], the “Utilization (Y=OD590−OD750)” value is reported as “− (when Y < 0.05, it is shown that the strain was not able to utilize this substance, marked as −)”.

For the compound `CO[C@@H]1O[C@H](CO)[C@@H](O)[C@H](O)[C@H]1O` [β-Methyl-D-galactoside], the “Utilization (Y=OD590−OD750)” value is given as “− (when Y < 0.05, it is shown that the strain was not able to utilize this substance, marked as −)”.

Turning to `OC[C@H]1O[C@@H]2O[C@H]3[C@H](O)[C@@H](O)[C@@H](O[C@H]4[C@H](O)[C@@H](O)[C@@H](O[C@H]5[C@H](O)[C@@H](O)[C@@H](O[C@H]6[C@H](O)[C@@H](O)[C@@H](O[C@H]7[C@H](O)[C@@H](O)[C@@H](O[C@H]1[C@H](O)[C@H]2O)O[C@@H]7CO)O[C@@H]6CO)O[C@@H]5CO)O[C@@H]4CO)O[C@@H]3CO` [α-Cyclodextrin], the “Utilization (Y=OD590−OD750)” value was “++ (when Y > 0.1, it is shown that the strain was able to effectively utilize this substance, marked as++)”.

As for `OC[C@@H](O)[C@@H](O)CO` [i-Erythritol], the “Utilization (Y=OD590−OD750)” value is recorded as “− (when Y < 0.05, it is shown that the strain was not able to utilize this substance, marked as −)”.

As for `OC[C@H]1O[C@@H]2O[C@H]3[C@H](O)[C@@H](O)[C@@H](O[C@H]4[C@H](O)[C@@H](O)[C@@H](O[C@H]5[C@H](O)[C@@H](O)[C@@H](O[C@H]6[C@H](O)[C@@H](O)[C@@H](O[C@H]7[C@H](O)[C@@H](O)[C@@H](O[C@H]8[C@H](O)[C@@H](O)[C@@H](O[C@H]1[C@H](O)[C@H]2O)O[C@@H]8CO)O[C@@H]7CO)O[C@@H]6CO)O[C@@H]5CO)O[C@@H]4CO)O[C@@H]3CO` [β-Cyclodextrin], the “Utilization (Y=OD590−OD750)” value was “− (when Y < 0.05, it is shown that the strain was not able to utilize this substance, marked as −)”.

As to `NCC(=O)N[C@@H](CCC(N)=O)C(=O)O` [Glycyl-L-glutamine] (H-Gly-Gln-OH), the “Utilization (Y=OD590−OD750)” value is recorded as “− (when Y < 0.05, it is shown that the strain was not able to utilize this substance, marked as −)”.

Regarding `Cc1cn([C@H]2C[C@H](O)[C@@H](CO)O2)c(=O)[nH]c1=O` [Thymidine], the “Utilization (Y=OD590−OD750)” value is listed as “− (when Y < 0.05, it is shown that the strain was not able to utilize this substance, marked as −)”.

On to `Nc1ncnc2c1ncn2[C@H]1C[C@H](O)[C@@H](CO)O1` [2′-Deoxyadenosine], for which the “Utilization (Y=OD590−OD750)” value is reported as “− (when Y < 0.05, it is shown that the strain was not able to utilize this substance, marked as −)”.

For `OC[C@H]1O[C@H](OC[C@H]2O[C@H](OC[C@H]3O[C@H](O[C@]4(CO)O[C@H](CO)[C@@H](O)[C@@H]4O)[C@H](O)[C@@H](O)[C@@H]3O)[C@H](O)[C@@H](O)[C@H]2O)[C@H](O)[C@@H](O)[C@H]1O` [Stachyose], the “Utilization (Y=OD590−OD750)” value is “+ (when 0.1 > Y > 0.05, it is shown that the strain was able to better utilize this substance, marked as +)”.

`O=c1ccn([C@@H]2O[C@H](CO)[C@@H](O)[C@H]2O)c(=O)[nH]1` [Uridine]: the “Utilization (Y=OD590−OD750)” value is “− (when Y < 0.05, it is shown that the strain was not able to utilize this substance, marked as −)”.

On to `CCC(O)C(=O)O` (stereo not drawn) [α-Hydroxybutyric acid], for which the “Utilization (Y=OD590−OD750)” value was “− (when Y < 0.05, it is shown that the strain was not able to utilize this substance, marked as −)”.

L-Asparagine acid: the “Utilization (Y=OD590−OD750)” value is on record as “+ (when 0.1 > Y > 0.05, it is shown that the strain was able to better utilize this substance, marked as +)”.

For `CC(=O)N[C@H]1[C@@H](O)[C@H](O)[C@@H](CO)O[C@H]1O` [N-Acetyl-β-D-mannosamine], the “Utilization (Y=OD590−OD750)” value is listed as “− (when Y < 0.05, it is shown that the strain was not able to utilize this substance, marked as −)”.

On to `OC[C@@H](O)C(O)[C@H](O)CO` [D-Arabinitol], for which the “Utilization (Y=OD590−OD750)” value was “− (when Y < 0.05, it is shown that the strain was not able to utilize this substance, marked as −)”.

Consider `OC[C@H]1O[C@H](OC[C@H]2OC(O)(CO)[C@@H](O)[C@@H]2O)[C@H](O)[C@@H](O)[C@@H]1O` (some centres unmarked) [Palatinose], for which the “Utilization (Y=OD590−OD750)” value is “++ (when Y > 0.1, it is shown that the strain was able to effectively utilize this substance, marked as++)”.

As to `O=C(O)/C=C/C(=O)O` [Fumaric acid], the “Utilization (Y=OD590−OD750)” value is reported as “− (when Y < 0.05, it is shown that the strain was not able to utilize this substance, marked as −)”.

Consider `OC[C@H]1O[C@H](O[C@H]2[C@H](O)[C@@H](O)[C@H](O)O[C@@H]2CO)[C@H](O)[C@@H](O)[C@@H]1O` [Maltose], for which the “Utilization (Y=OD590−OD750)” value is recorded as “− (when Y < 0.05, it is shown that the strain was not able to utilize this substance, marked as −)”.
